IC50 data for 54 compounds are collected here from ChEMBL document CHEMBL1132484, “New alpha-substituted succinate-based hydroxamic acids as TNFalpha convertase inhibitors” (J Med Chem, 1999).

Structures are written as SMILES.

Assay [1] deals with T1, Disintegrin and metalloproteinase domain-containing protein 17 (Homo sapiens, UniProt P78536). The assay can be described thus: Inhibition of TNF(tumor necrosis factor) in human blood. Format: functional.
Assay [2] concerns the target T1, Disintegrin and metalloproteinase domain-containing protein 17. The assay can be described thus: Inhibitory activity against Tumor necrosis factor alpha-converting enzyme (TACE) in blood. Format: tissue-based.

T1 sequence (P78536 whole entry, the tested form may be a part): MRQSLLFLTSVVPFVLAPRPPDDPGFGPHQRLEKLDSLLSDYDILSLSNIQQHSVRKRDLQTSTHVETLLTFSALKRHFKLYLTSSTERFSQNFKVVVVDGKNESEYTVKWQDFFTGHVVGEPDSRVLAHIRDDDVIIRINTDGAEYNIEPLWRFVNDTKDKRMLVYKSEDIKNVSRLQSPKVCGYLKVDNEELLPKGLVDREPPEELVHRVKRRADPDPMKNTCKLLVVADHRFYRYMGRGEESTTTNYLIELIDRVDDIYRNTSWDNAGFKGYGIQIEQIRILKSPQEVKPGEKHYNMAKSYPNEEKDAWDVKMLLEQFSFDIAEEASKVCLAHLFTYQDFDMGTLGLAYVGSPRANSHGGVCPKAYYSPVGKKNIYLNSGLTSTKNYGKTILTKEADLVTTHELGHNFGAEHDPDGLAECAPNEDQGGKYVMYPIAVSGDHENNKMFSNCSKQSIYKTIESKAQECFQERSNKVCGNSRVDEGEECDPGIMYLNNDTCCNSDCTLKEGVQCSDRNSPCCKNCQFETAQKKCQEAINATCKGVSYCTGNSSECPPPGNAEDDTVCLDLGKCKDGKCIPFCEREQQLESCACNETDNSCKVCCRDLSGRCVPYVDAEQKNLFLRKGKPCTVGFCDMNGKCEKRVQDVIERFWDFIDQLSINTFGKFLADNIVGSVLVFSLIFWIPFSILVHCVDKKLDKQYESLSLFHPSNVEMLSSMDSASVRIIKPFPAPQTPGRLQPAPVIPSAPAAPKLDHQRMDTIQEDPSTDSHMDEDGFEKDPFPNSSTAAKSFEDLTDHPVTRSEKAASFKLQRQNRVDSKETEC

For the compound `CNC(=O)[C@@H](NC(=O)[C@H](CC(C)C)[C@H](Sc1ccc(F)cc1Cl)C(=O)NO)C(C)(C)C`, the results for the IC50 in assay [1] and in assay [2] were 11000 nM and 1.1 nM, respectively.
Consider `CNC(=O)[C@@H](NC(=O)[C@H](CC(C)C)[C@H](OCc1ccc2ccccc2c1)C(=O)NO)C(C)(C)C`, for which the IC50 in assay [1] came to 7300 nM; in assay [2], 0.6 nM.
For the compound `CNC(=O)[C@@H](NC(=O)[C@H](CC(C)C)[C@H](NS(=O)(=O)c1ccc2ccccc2c1)C(=O)NO)C(C)(C)C`, the IC50 in assay [1] came out at 1200 nM; in assay [2], 0.66 nM.
As to `CNC(=O)[C@@H](NC(=O)C(CC(C)C)C(NS(=O)(=O)c1ccc(NC(C)=O)cc1)C(=O)NO)C(C)(C)C` (single isomer, unassigned), the IC50 in assay [1] worked out at 1200 nM; in assay [2], 1.3 nM.
As for `CNC(=O)[C@@H](NC(=O)[C@H](CC(C)C)[C@H](OCc1cc2ccccc2n(C)c1=O)C(=O)NO)C(C)(C)C`, the IC50 in assay [1] was 2350 nM; in assay [2] it was 0.44 nM.
For the compound `CNC(=O)[C@@H](NC(=O)[C@H](CC(C)C)[C@H](OCc1ccc2nc(C)nc(O)c2c1)C(=O)NO)C(C)(C)C`, the figures for the IC50 in assay [1] and in assay [2] were 2400 nM and 0.43 nM, respectively.
Regarding `CNC(=O)[C@@H](NC(=O)[C@H](CC(C)C)[C@H](OCc1cccc2nccnc12)C(=O)NO)C(C)(C)C`, the IC50 was found to be 7600 nM in assay [1] and 1.1 nM in assay [2].
`CNC(=O)[C@@H](NC(=O)[C@H](CC(C)C)[C@H](NC(=O)c1cccnc1)C(=O)NO)C(C)(C)C` yielded an IC50 in assay [2] of 22 nM.
For the compound `CNC(=O)[C@@H](NC(=O)[C@H](CC(C)C)[C@H](OC)C(=O)NO)C(C)(C)C`, the values for the IC50 in assay [1] and in assay [2] were 5000 nM and 1.5 nM, respectively.
For `CNC(=O)[C@@H](NC(=O)[C@H](CC(C)C)[C@H](NS(C)(=O)=O)C(=O)NO)C(C)(C)C` the same measures were 1600 nM and 2.2 nM.
As for `CNC(=O)[C@@H](NC(=O)[C@H](CC(C)C)[C@H](NCc1ccc2ccccc2n1)C(=O)NO)C(C)(C)C`, the IC50 in assay [1] is 5700 nM; in assay [2], 1 nM.
Consider `CNC(=O)[C@@H](NC(=O)C(CC(C)C)C(NC(=O)c1ccccc1)C(=O)NO)C(C)(C)C` (single isomer, unassigned), for which the IC50 in assay [2] worked out at 9 nM.
Same read-out and setting: under `CNC(=O)[C@@H](NC(=O)[C@H](CC(C)C)[C@@H](Sc1ccccc1)C(=O)NO)C(C)(C)C` stands 1 nM.
Turning to `CNC(=O)[C@@H](NC(=O)[C@H](CC(C)C)[C@H](SC)C(=O)NO)C(C)(C)C`, the values for the IC50 in assay [1] and in assay [2] were 2300 nM and 1.6 nM, respectively.
For `CNC(=O)[C@@H](NC(=O)[C@H](CC(C)C)[C@H](Sc1ccc(C#N)cc1)C(=O)NO)C(C)(C)C` the same measures were 3300 nM and 0.63 nM.
Consider `CNC(=O)[C@@H](NC(=O)[C@H](CC(C)C)[C@H](NS(=O)(=O)c1ccc(C(=O)O)cc1)C(=O)NO)C(C)(C)C`, for which the IC50 in assay [1] was found to be 4400 nM; in assay [2], 3.2 nM.
The like results for `CNC(=O)[C@@H](NC(=O)[C@H](CC(C)C)[C@H](Sc1cccc(C(C)(C)C#N)c1)C(=O)NO)C(C)(C)C` were, in that order, 2800 nM and 1.6 nM.
In the case of `CNC(=O)[C@@H](NC(=O)[C@H](CC(C)C)[C@@H](C(=O)NO)N1CCCC1)C(C)(C)C`, the IC50 amounted to 6100 nM in assay [1] and 2.8 nM in assay [2].
For `CNC(=O)[C@@H](NC(=O)[C@H](CC(C)C)[C@H](NS(=O)(=O)c1cccs1)C(=O)NO)C(C)(C)C` the same measures were 2800 nM and 1.5 nM.
As for `CC1(C)SCCN(S(=O)(=O)c2ccc(Oc3ccncc3)cc2)[C@H]1C(=O)NO` [PRINOMASTAT], the IC50 is 16600 nM in assay [1] and 5.5 nM in assay [2].
For `CNC(=O)[C@H](Cc1ccccc1)NC(=O)[C@H](CC(C)C)[C@H](CSc1ccccc1)C(=O)NO` the same measures were 5300 nM and 1.8 nM.
As for `CNC(=O)[C@@H](NC(=O)C(CC(C)C)C(NS(=O)(=O)c1ccc(Br)cc1)C(=O)NO)C(C)(C)C` (single isomer, unassigned), the IC50 in assay [1] worked out at 4400 nM; in assay [2], 1.4 nM.
As to `CCCN([C@H](C(=O)NO)[C@@H](CC(C)C)C(=O)N[C@H](C(=O)NC)C(C)(C)C)S(=O)(=O)c1cccc2cccnc12`, the IC50 in assay [2] worked out at 10 nM.
As for `CNC(=O)[C@@H](NC(=O)[C@H](CC(C)C)[C@H](NS(=O)(=O)c1cccnc1)C(=O)NO)C(C)(C)C`, the IC50 turned out to be 3800 nM in assay [1] and 2.1 nM in assay [2].
For the compound `CNC(=O)[C@@H](NC(=O)[C@H](CC(C)C)[C@H](Sc1ccc(S(C)(=O)=O)cc1)C(=O)NO)C(C)(C)C`, the IC50 in assay [1] was 2100 nM; in assay [2], 1.25 nM.
Consider `CNC(=O)[C@@H](NC(=O)[C@H](CC(C)C)[C@H](NS(=O)(=O)c1ccc2c(c1)CC(=O)N2)C(=O)NO)C(C)(C)C`, for which the IC50 turned out to be 1500 nM in assay [1] and 2.8 nM in assay [2].
In assay [2], `CNC(=O)[C@@H](NC(=O)[C@H](CC(C)C)[C@H](Sc1ccc(OC)c(OC)c1)C(=O)NO)C(C)(C)C` returned an IC50 of 1.2 nM.
As for `CNC(=O)[C@@H](NC(=O)C(CC(C)C)C(C(=O)NO)N(Cc1ccccc1)S(=O)(=O)c1cccc2cccnc12)C(C)(C)C` (single isomer, unassigned), the IC50 in assay [2] was found to be 85 nM.
For `CNC(=O)[C@@H](NC(=O)[C@H](CC(C)C)[C@H](NC(=O)c1ccc2ccccc2c1)C(=O)NO)C(C)(C)C`, the IC50 in assay [1] is > 20000 nM; in assay [2], 3.3 nM.
With `CNC(=O)[C@@H](NC(=O)[C@H](CC(C)C)[C@H](OCc1cccc2ccccc12)C(=O)NO)C(C)(C)C`, the figures for the IC50 in assay [1] and in assay [2] were 7600 nM and 0.33 nM, respectively.
For `CNC(=O)[C@@H](NC(=O)C(CC(C)C)C(NS(=O)(=O)c1ccccc1)C(=O)NO)C(C)(C)C` (single isomer, unassigned), the IC50 was 1300 nM in assay [1] and 1.5 nM in assay [2].
Regarding `CNC(=O)[C@@H](NC(=O)C(CC(C)C)C(NS(=O)(=O)c1ccc(F)cc1Cl)C(=O)NO)C(C)(C)C` (single isomer, unassigned), in assay [2], the midpoint of inhibition, the IC50, lay at 9.7 nM.
As to `CNC(=O)[C@@H](NC(=O)[C@H](CC(C)C)[C@H](Sc1cc(Cl)cc(Cl)c1)C(=O)NO)C(C)(C)C`, the values for the half-maximal inhibitory concentration (IC50) in assay [1] and in assay [2] were 4900 nM and 0.42 nM, respectively.
Consider `CNC(=O)[C@@H](NC(=O)[C@H](CC(C)C)[C@H](NS(=O)(=O)c1cccc2c(=O)[nH]cnc12)C(=O)NO)C(C)(C)C`, for which the figures for the IC50 in assay [1] and in assay [2] were 4900 nM and 3.4 nM, respectively.
On to `CNC(=O)[C@@H](NC(=O)[C@H](CC(C)C)[C@H](OCCc1ccc2sc(C)nc2c1)C(=O)NO)C(C)(C)C`, for which the figures for the IC50 in assay [1] and in assay [2] were 3500 nM and 0.21 nM, respectively.
For `CNC(=O)[C@@H](NC(=O)[C@H](CC(C)C)[C@H](Sc1ccccc1)C(=O)NO)C(C)(C)C`, in assay [2], the IC50 was determined as 188 nM.
With `CNC(=O)[C@@H](NC(=O)[C@H](CC(C)C)[C@H](OCc1cccc2cccnc12)C(=O)NO)C(C)(C)C`, the results for the IC50 in assay [1] and in assay [2] were 8200 nM and 0.4 nM, respectively.
`CNC(=O)[C@@H](NC(=O)C(CC(C)C)C(NC(C)=O)C(=O)NO)C(C)(C)C` (single isomer, unassigned) gave an IC50 in assay [2] of 13 nM.
Take `CNC(=O)[C@@H](NC(=O)[C@H](CC(C)C)[C@H](NS(=O)(=O)c1cccc2ccccc12)C(=O)NO)C(C)(C)C`: the IC50 in assay [1] was 3100 nM; in assay [2], 1.2 nM.
`CNC(=O)[C@@H](NC(=O)C(CC(C)C)C(NS(=O)(=O)c1cnc[nH]1)C(=O)NO)C(C)(C)C` (single isomer, unassigned) gave an IC50 in assay [2] of 9 nM.
On to `CNC(=O)[C@@H](NC(=O)[C@H](CC(C)C)[C@H](Sc1ccc2c(c1)CCC(=O)N2C)C(=O)NO)C(C)(C)C`, for which the IC50 was determined as 6600 nM in assay [1] and 1.4 nM in assay [2].
In the case of `CNC(=O)[C@@H](NC(=O)[C@H](CC(C)C)[C@H](NC(=O)c1ccc2ncccc2c1)C(=O)NO)C(C)(C)C`, in assay [2], the IC50 was 9.5 nM.
Turning to `CNC(=O)[C@@H](NC(=O)[C@H](CC(C)C)[C@H](NCCCSC)C(=O)NO)C(C)(C)C`, the IC50 in assay [1] came to 4600 nM; in assay [2] it was 1.3 nM.
On to `CNC(=O)[C@@H](NC(=O)[C@H](CC(C)C)[C@H](NS(=O)(=O)c1ccc2c(c1)CCC(=O)N2C)C(=O)NO)C(C)(C)C`, for which the IC50 in assay [1] is 3000 nM; in assay [2], 2.9 nM.
The like results for `CNC(=O)[C@@H](NC(=O)[C@H](CC(C)C)[C@H](NCc1ccc2ccccc2c1)C(=O)NO)C(C)(C)C` were, in that order, 6700 nM and 0.57 nM.
In the case of `CNC(=O)[C@@H](NC(=O)C(CC(C)C)C(NS(=O)(=O)c1ccccc1C#N)C(=O)NO)C(C)(C)C` (single isomer, unassigned), the IC50 in assay [2] amounted to 17 nM.
In the case of `CNC(=O)[C@@H](NC(=O)C(CC(C)C)C(NCc1ccccc1)C(=O)NO)C(C)(C)C` (single isomer, unassigned), the results for the IC50 in assay [1] and in assay [2] were 6100 nM and 2.8 nM, respectively.
The like results for `CNC(=O)[C@@H](NC(=O)C(CC(C)C)C(NS(=O)(=O)c1cc(Cl)cc(Cl)c1)C(=O)NO)C(C)(C)C` (single isomer, unassigned) were, in that order, 11300 nM and 1 nM.
In assay [2], `CNC(=O)[C@@H](NC(=O)[C@H](CC(C)C)[C@H](NS(=O)(=O)c1c(C(C)C)cc(C(C)C)cc1C(C)C)C(=O)NO)C(C)(C)C` showed an IC50 of 13 nM.
Regarding `CNC(=O)[C@@H](NC(=O)[C@H](CC(C)C)[C@H](NS(=O)(=O)/C=C/c1ccccc1)C(=O)NO)C(C)(C)C`, the results for the IC50 in assay [1] and in assay [2] were 770 nM and 0.54 nM, respectively.
Consider `CCS[C@H](C(=O)NO)[C@@H](CC(C)C)C(=O)N[C@H](C(=O)NC)C(C)(C)C`, for which the IC50 stood at 5600 nM in assay [1] and 1.5 nM in assay [2].
For `CNC(=O)[C@@H](NC(=O)C(CC(C)C)C(OCc1cc2c(=O)[nH]c(C)nc2cc1Br)C(=O)NO)C(C)(C)C` (single isomer, unassigned) the same measures were 4300 nM and 0.33 nM.
On to `CNC(=O)[C@@H](NC(=O)[C@H](CC(C)C)[C@H](NS(=O)(=O)CCc1ccncc1)C(=O)NO)C(C)(C)C`, for which the IC50 in assay [1] turned out to be 700 nM; in assay [2], 1.3 nM.
Consider `CNC(=O)[C@@H](NC(=O)[C@H](CC(C)C)[C@H](OCc1ccc2oc(=O)ccc2c1)C(=O)NO)C(C)(C)C`, for which the IC50 is 3600 nM in assay [1] and 0.79 nM in assay [2].
